Type in all cases: cell-based
For one test, the system named is HACAT_SEN. Kind of test: Senescence assay, viability of senescent HACAT cells (CellTiter-Glo or XTT). Conditions: Homo sapiens, compounds 24-72 hours, viability relative to untreated control, read-out: Absolute IC50 average HACAT_SEN IC50. As to the method:
Cells were maintained in DMEM media (high glucose, 4 mM L-glutamine, no sodium pyruvate) supplemented with 10% fetal bovine serum in a humidified incubator at 37° C. with 5% carbon dioxide. Senescence was induced via treatment with a sublethal concentration of chemotherapy (bleomycin, gemcitabine, doxorubicin, 5-fluorouridine, mitomycin C), followed by a rest period without chemotherapy similarly to what is reported by others in the field (e.g., Aoshiba et al., 2003 Eur Respir J 22:436-443). Senescence was qualified by low EdU (5-ethynyl-2′-deoxyuridine) incorporation and high SA-β-Gal (senescence-associated beta-galactosidase) staining compared to proliferating untreated cells. Senescent cells were plated into 96-well plates at a density of 5-15,000 cells/well. The next day, compounds were added in duplicate across ten different concentrations spanning roughly four Log10 units. Cells were incubated with the compounds for 24-72 hours, at which point viability was quantified using CellTiter-Glo (Promega) or XTT (R&D Systems). The viability for treated cells was determined relative to untreated control cells. The log of the compound concentration vs. normalized mean viability was fit to a four parameters Hill function with variable slope. The bottom was constrained to be greater than zero. The X mean value for Y=50 was interpolated to determine the absolute IC50. […]
On the technique in general: ATP-based viability assays read luminescence as a measure of living cells.

A further test deals with senescent IMR90 cells. Kind of test: Senescence assay, viability of senescent IMR90 cells (CellTiter-Glo or XTT). Conditions: Homo sapiens, IMR-90; chemotherapy-induced senescent IMR90 cells; compounds 24-72 hours; viability relative to untreated control; read-out: Absolute IC50 average IMR90_SEN IC50. As for the experimental part: (§1) Cells were maintained in DMEM media (high glucose, 4 mM L-glutamine, no sodium pyruvate) supplemented with 10% fetal bovine serum in a humidified incubator at 37° C. with 5% carbon dioxide. Senescence was induced via treatment with a sublethal concentration of chemotherapy (bleomycin, gemcitabine, doxorubicin, 5-fluorouridine, mitomycin C), followed by a rest period without chemotherapy similarly to what is reported by others in the field (e.g., Aoshiba et al., 2003 Eur Respir J 22:436-443). Senescence was qualified by low EdU (5-ethynyl-2′-deoxyuridine) incorporation and high SA-β-Gal (senescence-associated beta-galactosidase) staining compared to proliferating untreated cells. Senescent cells were plated into 96-well plates at a density of 5-15,000 cells/well. The next day, compounds were added in duplicate across ten different concentrations spanning roughly four Log10 units. Cells were incubated with the compounds for 24-72 hours, at which point viability was quantified using CellTiter-Glo (Promega) or XTT (R&D Systems). The viability for treated cells was determined relative to untreated control cells. The log of the compound concentration vs. normalized mean viability was fit to a four parameters Hill function with variable slope. The bottom was constrained to be greater than zero. The X mean value for Y=50 was interpolated to determine the absolute IC50. The results in Table 1 indicate that many of the compounds are active in cells and can induce a dose dependent decrease in the viability of senescent A549 and IMR90 cells.

For another test, the system named is senescent A549 cells. The experiment in a line: Senescence assay, viability of senescent A549 cells (CellTiter-Glo or XTT). Conditions: Homo sapiens; chemotherapy-induced senescent A549 cells; compounds 24-72 hours; viability relative to untreated control; read-out: Absolute IC50 average A549_SEN IC50. As to the method: as §1

Each structure is given as a SMILES string.

The IC50 is the concentration that inhibits the measured activity by half. Consider `CCOP(C)(=O)c1nc(N2CCc3cccc(C(=O)Nc4nc5ccccc5s4)c3C2)ccc1-c1cnn(CC23CC4CC(CC(C4)C2)C3)c1C` (stereo not drawn) [Compound 1, ethyl(3-(1-(((3r,5r,7r)-adamantan-1-yl)methyl)-5-methyl-1H-pyrazol-4-yl)-6-(8-(benzo[d]thiazol-2-ylcarbamoyl)-3,4-dihydroisoquinolin-2 (1H)-yl)pyridin-2-yl)(methyl)phosphinate], for which the IC50 with HACAT_SEN was under 0.01 µM; in the test with senescent IMR90 cells it was 0.01 to 0.1 µM; in the test on senescent A549 cells, 0.01 to 0.1 µM.

For the molecule `Cc1c(-c2ccc(N3CCc4cccc(C(=O)Nc5nc6ccccc6s5)c4C3)nc2P(C)(=O)O)cnn1CC12CC3CC(CC(C3)C1)C2` [Compound 2, (3-(1-(((3r,5r,7r)-adamantan-1-yl)methyl)-5-methyl-1H-pyrazol-4-yl)-6-(8-(benzo[d]thiazol-2-ylcarbamoyl)-3,4-dihydroisoquinolin-2 (1H)-yl)pyridin-2-yl)(methyl)phosphinic acid], the results for the IC50 in the test with senescent IMR90 cells and with senescent A549 cells were 0.1 to 1 µM and 0.01 to 0.1 µM, respectively.

For the molecule `Cc1c(-c2ccc(N3CCc4cccc(C(=O)Nc5nc6ccccc6s5)c4C3)nc2P(C)(=O)OCc2ccc(O[C@@H]3O[C@@H](C)[C@@H](O)[C@@H](O)[C@@H]3O)cc2)cnn1CC12CC3CC(CC(C3)C1)C2` (stereo partly drawn) [Compound 3, 4-(((2S,3S,4R,5S,6S)-3,4,5-trihydroxy-6-methyltetrahydro-2H-pyran-2-yl)oxy) benzyl(3-(1-(((3r,5r,7r)-adamantan-1-yl)methyl)-5-methyl-1H-pyrazol-4-yl)-6-(8-(benzo[d]thiazol-2-ylcarbamoyl)-3,4-dihydroisoquinolin-2 (1H)-yl)pyridin-2-yl)(methyl)phosphinate], the IC50 fell in the range of 0.1 to 1 µM in the test with senescent IMR90 cells and 0.01 to 0.1 µM with senescent A549 cells.

As to `Cc1cc(N(C)c2nc(P(C)(=O)O)c(CCCOc3ccc(C#CCN(C)C)cc3F)s2)nnc1Nc1nc2ccccc2s1` [Compound 4, (2-((6-(benzo[d]thiazol-2-ylamino)-5-methylpyridazin-3-yl)(methyl)amino)-5-(3-(4-(3-(dimethylamino)prop-1-yn-1-yl)-2-fluorophenoxy)propyl)thiazol-4-yl)(methyl)phosphinic acid], the IC50 is 1 to 10 µM with senescent IMR90 cells and 0.1 to 1 µM in the test with senescent A549 cells.

These data come from patent US20250171473A1, “Phosphorous Containing BCL Inhibitors and Senolytic Compounds and Uses Thereof” (Rubedo Life Sciences, Inc., priority 2023, published 2025).
